Assay results from patent publication US20210212984A1, “FORMULATION FOR PAIN MANAGEMENT” (Zyus Life Sciences Inc., priority 2019, published 2021).
“And” between values parts separate entries of the source, which are not always exact repeats. Equal values may be shown once.

Tests used:
Format in all cases: in vivo, Sprague-Dawley rats
SNL operated SD rats [1] = assay: Fine motor kinematic gait analysis (MotoRater) in SNL rats; conditions: within group, D7 to 24 h PD
Description: Fine Motor Kinematic Gait Analysis. The rats were subjected to gait analysis at the baseline and on study days 8, 9, 11, 14 and 17, at a minimum of 30 min after the evF test. The assay were carried out by MotoRater (TSE Systems, Homburg, Germany), with the walking mode. Prior to commencing the test, the essential body points (e.g. joints, limbs, nose, tail) were marked for tracking. The information of the gait performance was captured using a high speed camera (300 frames/second) from below and both sides. Next, the captured videos were converted to SimiMotion™ software. The raw data were obtained by tracking the marked points of the body from the videos recorded from all 3 dimensions. […]
Different gait patterns and movements were analyzed using a custom-made automated analysis system. […]
All Motorater data were analyzed for the distinct parameters, as well as for all combined parameters, using principal component analysis (PCA). […]
Comprehensive kinematic analysis was performed by high sensitivity MotoRater that allows detection of any subtle to severe gait changes in SNL model. […] The fine motor capabilities and the gait of the animals were evaluated at the baseline and four times after the SNL surgery, 2 h, 5 h, 9 h and 24 hours post-dosing using the kinematic movement analysis of altogether 97 separate parameters that were recorded.

SNL operated SD rats [2] = assay: Data mining (contrastive PCA) of multivariate kinematic gait data: SNL model score and sedation score; conditions: 50 mg/kg
Description: In this Example, data mining was performed to extend the multivariate kinematic data analysis and capture (a) Parameters indicative of analgesia vs. sedation phenotypes (analgesic or sedation ‘fingerprint’) (b) Quantitative measurement of parameters attributed to the temporal aspects of motion to evaluate temporal aspects of motion, such as positions, angles, velocities, and accelerations of body segments and joints during motion. Briefly, Contrastive Principal Component Analysis (cPCA) was utilized to identify different combinations of original variables which were linked to model effect, learning effect, and sedative effects. An orthogonalization procedure was used to make the obtained effects independent. cPC scores corresponding to identified cPCs were computed. In order to evaluate the analgesic and sedative effects of CBD:CBC:THC 5:5:5 mg/kg group, separate comparisons were performed with vehicle and pregabalin as controls, CBD+THC 10:10 mg/kg as positive control for sedation and CBC 10 mg/kg as negative control for sedation. The results of these comparisons were obtained by using all the previously identified components: model effect, learning effect and model orthogonal to learning, sedation orthogonal to model, and finally, the sedation orthogonal to both model and learning. […]

SNL operated SD rats [3] = assay: Tactile allodynia test, electronic von Frey (evF), paw withdrawal threshold in spinal nerve ligation (SNL) rats
Description: Spinal Nerve Ligation (SNL) Surgery. The animals were enrolled to SNL surgery in daily cohorts of n=6. The rats first received an intraperitoneal dose of 0.03 mg/kg buprenorphine (Temgesic), minimum of 30 minutes prior to the surgery, to alleviate the operative and postoperative pain unrelated to neuropathy. Prior to spinal nerve ligation (SNL) procedure, the rats were anesthetized with isoflurane in 70% N2O and 30% O2; with a flow rate of 300 ml/min. Anesthesia was inducted in a chamber with 5% isoflurane for 2-3 min, and maintained through a snout mask with 1-2% isoflurane thereafter. A homeothermic blanket system was used for the rectal temperature to be monitored and maintained at 37.0° C.±1.5° C. during the operation.
A dorsal incision extending from L3 to S2 was performed to the medial dorsal area of the rat using aseptic technique. The L6/S1 posterior interarticular process was exposed using a combination of blunt and sharp dissection. The L6 transverse process in the spinal column was visualized and partially removed without manipulating the nerves, followed by exposing the L4 and L5 spinal nerves distal to their emergence from the intervertebral foramina.
The L5 nerve was ligated tightly with 6-0 silk suture. The L6 nerve was then located caudal and medial to the sacroiliac junction and tightly ligated with 6-0 silk suture, similarly to L5. Both ligatures were performed as double knots.
Tactile Allodynia Test (evF) and Pre-Handling and Baseline evF. In this study, mechanical sensitivity to touch stimuli was defined at four timepoints by using electronic von Frey (evF) device along with the attached analysis software (Somedic®, Sweden).
To perform the evF test, the rats were placed in individual von Frey test chambers standing on an elevated steel mesh. The rats were then allowed to adapt in the chambers, and the test per se was emerged after they have settled down followed by investigating the chamber and grooming (approximately 15 min). Test […] an animals were grooming, urinating, defecating or sleeping. Further description of test procedure is provided hereinbelow.
Conducting evF Test. Mechanical allodynia were assessed by evF test prior to SNL surgery (baseline), to define the individual sensitivity levels of the study animals. Next, the evF was performed on D 7 post-SNL, to assess the hypersensitivity evoked by the SNL surgery, and to provide pre-dosing sensitivity values for comparing. On D 8, the animals were subjected to the test at 2 h post-dosing (PD), at 4 h PD and at 8 h PD. Subsequently, the test was performed at 24 h PD, i.e. on D 9. On D 9, Group 2 received Pregabalin (i.p) at 2 h prior to testing.
The evF apparatus was used according to the manufacturer's instructions. Briefly, upon each measurement, the force is applied to mid-plantar surface of the hind paw in a linearly increasing rate.
The used evF probe diameter was 1 mm, and the chosen ascent rate of the force 10 g/s. The linearity of force application was monitored in real time. The applied force (in grams) causing paw withdrawal was recorded by the apparatus as the result for the trial.
Altogether, 5 repeated measurements were applied to each hind paw at each time-point leaving a minimum of 3-min interval between the repeats. Medians of the 5 measurement repeats were determined from each paw at any given time point. Both ipsi- and contralateral paws were also tested on each test day.

CC(C)C[C@H](CN)CC(=O)O [Pregabalin]
overall gait score pattern over time, in words (SNL operated SD rats [1]): increasing score until 9 h PD timepoint
analgesic or sedative effect in the kinematic data (SNL operated SD rats [2]): no analgesic or sedative effect
Mean Diff, evF AUC (SNL operated SD rats [3]; 5 mg/kg subset, labelled group vs. CBD + THC + CBC 5:5:1 mg/kg): 13.8 and 14
Mean Diff, evF AUC (SNL operated SD rats [3]; 5 mg/kg subset, labelled group vs. Vehicle): 29.8 and 30
Mean (Mean 1/Mean 2), electronic von Frey Area Under the Curve (AUC) (SNL operated SD rats [3]; Table 2B, 5 mg/kg subset, AUC of % of baseline PWT, pre-dosing to 24 h post-dosing, dose as in label, cannabinoids p.o. D8, Pregabalin 50 mg/kg i.p.): 271
Mean (Mean 1/Mean 2), electronic von Frey AUC (SNL operated SD rats [3]; Table 3, 10 mg/kg subset, AUC of % of baseline PWT, pre-dosing to 24 h post-dosing, dose as in label, cannabinoids p.o. D8, Pregabalin 50 mg/kg i.p.): 270.8
Mean Diff, evF AUC (SNL operated SD rats [3]; Table 3, labelled group vs. CBD + THC 10 mg/kg): −63.2
Mean Diff, evF AUC (SNL operated SD rats [3]; Table 3, labelled group vs. CBD + THC 10 mg/kg + CBC 2 mg/kg): −49.2
Mean Diff, evF AUC (SNL operated SD rats [3]; Table 3, labelled group vs. Vehicle): 29.8
Mean Diff, evF AUC (SNL operated SD rats [3]; vs. Vehicle, separate 'Tukey's multiple comparison test' block at foot of Tables 2A/2B): 29.8 and 30
